Consider three compounds from patent publication US10669284B2, “Fused thiazolopyrimidine derivatives as MNKS inhibitors” (LIFEARC, priority 2015, dated 2020).

Experiment [1] deals with FES (Homo sapiens, UniProt P07332). In words: Kinase selectivity screen FES. The following applies: read-out: % inhibition of FES.
The target of experiment [2] is BTK (Homo sapiens, UniProt Q06187). In words: Kinase selectivity screen BTK. The following applies: read-out: % inhibition of BTK.
Experiment [3] deals with SRC (Homo sapiens, UniProt P12931). The experiment is described as follows: Kinase selectivity screen SRC. The following applies: read-out: % inhibition of SRC.
Experiment [4] concerns the target KIT (Homo sapiens, UniProt P10721). The experiment is described as follows: Kinase selectivity screen KIT. The following applies: read-out: % inhibition of KIT.
Experiment [5] deals with LCK (Homo sapiens, UniProt P06239). The experiment is described as follows: Kinase selectivity screen LCK. The conditions noted are these: read-out: % inhibition of LCK.
For experiment [6], the target named is PLK1 (Homo sapiens, UniProt P53350). In words: Kinase selectivity screen PLK1. The conditions noted are these: read-out: % inhibition of PLK1.
The target of experiment [7] is INSR (Homo sapiens, UniProt P06213). In words: Kinase selectivity screen INSR. The following applies: read-out: % inhibition of INSR.
For experiment [8], the target named is PIM2 (Homo sapiens, UniProt Q9P1W9). The experiment is described as follows: Kinase selectivity screen PIM2. The following applies: read-out: % inhibition of PIM2.
In experiment [9] the target is ABL2 (Homo sapiens, UniProt P42684). The experiment is described as follows: Kinase selectivity screen ABL2. The conditions noted are these: read-out: % inhibition of ABL2.
Experiment [10] deals with ABL1 (Homo sapiens, UniProt P00519). The experiment is described as follows: Kinase selectivity screen ABL1. The following applies: read-out: % inhibition of ABL1.
The target of experiment [11] is MTOR (Homo sapiens, UniProt P42345). The experiment is described as follows: Kinase selectivity screen MTOR. The conditions noted are these: read-out: % inhibition of MTOR.
In experiment [12] the target is EPHA5 (Homo sapiens, UniProt P54756). The experiment is described as follows: Kinase selectivity screen EPHA5. The following applies: read-out: % inhibition of EPHA5.
Chain of EPHA5 (P54756 25-1037, species assumed): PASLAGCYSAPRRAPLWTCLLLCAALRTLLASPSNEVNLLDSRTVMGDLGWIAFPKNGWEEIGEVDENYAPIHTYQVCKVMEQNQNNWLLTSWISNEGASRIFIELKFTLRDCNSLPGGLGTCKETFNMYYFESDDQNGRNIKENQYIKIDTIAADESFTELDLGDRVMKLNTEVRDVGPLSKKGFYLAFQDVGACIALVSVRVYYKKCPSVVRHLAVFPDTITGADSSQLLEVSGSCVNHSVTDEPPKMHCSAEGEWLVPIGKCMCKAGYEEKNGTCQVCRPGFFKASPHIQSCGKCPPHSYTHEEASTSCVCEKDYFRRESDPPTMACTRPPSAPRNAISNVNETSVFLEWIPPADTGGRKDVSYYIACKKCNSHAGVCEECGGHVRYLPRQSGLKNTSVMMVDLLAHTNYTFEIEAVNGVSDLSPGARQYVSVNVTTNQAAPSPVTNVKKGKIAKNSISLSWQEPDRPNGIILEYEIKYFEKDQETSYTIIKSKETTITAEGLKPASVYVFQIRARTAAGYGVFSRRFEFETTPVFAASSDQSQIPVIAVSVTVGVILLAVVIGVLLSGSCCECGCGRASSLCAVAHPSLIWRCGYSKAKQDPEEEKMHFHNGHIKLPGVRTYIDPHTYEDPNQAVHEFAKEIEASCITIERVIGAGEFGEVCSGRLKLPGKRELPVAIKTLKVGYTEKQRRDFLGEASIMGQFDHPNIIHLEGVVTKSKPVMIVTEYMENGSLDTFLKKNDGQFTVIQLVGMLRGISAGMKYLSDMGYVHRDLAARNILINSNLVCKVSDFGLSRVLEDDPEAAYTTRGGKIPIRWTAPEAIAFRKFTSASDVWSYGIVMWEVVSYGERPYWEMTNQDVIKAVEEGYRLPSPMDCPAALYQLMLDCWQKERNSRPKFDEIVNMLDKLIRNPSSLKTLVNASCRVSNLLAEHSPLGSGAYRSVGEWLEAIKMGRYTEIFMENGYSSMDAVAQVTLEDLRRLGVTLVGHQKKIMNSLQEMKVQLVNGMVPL
Experiment [13] deals with T1, DYRK2 (Homo sapiens, UniProt Q92630).
T1 sequence (Q92630 1-601): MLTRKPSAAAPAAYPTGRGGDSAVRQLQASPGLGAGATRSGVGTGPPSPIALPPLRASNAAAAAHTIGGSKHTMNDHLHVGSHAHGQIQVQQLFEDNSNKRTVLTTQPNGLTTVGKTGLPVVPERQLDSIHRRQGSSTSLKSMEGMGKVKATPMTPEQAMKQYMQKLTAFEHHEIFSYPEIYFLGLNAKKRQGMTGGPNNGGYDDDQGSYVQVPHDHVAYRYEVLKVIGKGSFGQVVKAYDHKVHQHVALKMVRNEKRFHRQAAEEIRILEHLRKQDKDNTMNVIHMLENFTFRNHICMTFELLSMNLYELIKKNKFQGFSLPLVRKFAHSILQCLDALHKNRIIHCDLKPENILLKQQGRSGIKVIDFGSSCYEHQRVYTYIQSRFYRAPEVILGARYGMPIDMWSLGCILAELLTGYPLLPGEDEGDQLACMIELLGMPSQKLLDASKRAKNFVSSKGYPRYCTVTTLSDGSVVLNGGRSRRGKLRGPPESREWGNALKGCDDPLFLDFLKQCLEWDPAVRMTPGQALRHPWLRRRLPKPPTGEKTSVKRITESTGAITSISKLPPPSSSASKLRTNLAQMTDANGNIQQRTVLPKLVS
The experiment is described as follows: Kinase selectivity screen DYRK2. The following applies: read-out: % inhibition of DYRK2.

In experiment [14] the target is FGFR3 (Homo sapiens, UniProt P22607). The experiment is described as follows: Kinase selectivity screen FGFR3. The conditions noted are these: read-out: % inhibition of FGFR3.
Chain of FGFR3 (P22607 23-806, species assumed): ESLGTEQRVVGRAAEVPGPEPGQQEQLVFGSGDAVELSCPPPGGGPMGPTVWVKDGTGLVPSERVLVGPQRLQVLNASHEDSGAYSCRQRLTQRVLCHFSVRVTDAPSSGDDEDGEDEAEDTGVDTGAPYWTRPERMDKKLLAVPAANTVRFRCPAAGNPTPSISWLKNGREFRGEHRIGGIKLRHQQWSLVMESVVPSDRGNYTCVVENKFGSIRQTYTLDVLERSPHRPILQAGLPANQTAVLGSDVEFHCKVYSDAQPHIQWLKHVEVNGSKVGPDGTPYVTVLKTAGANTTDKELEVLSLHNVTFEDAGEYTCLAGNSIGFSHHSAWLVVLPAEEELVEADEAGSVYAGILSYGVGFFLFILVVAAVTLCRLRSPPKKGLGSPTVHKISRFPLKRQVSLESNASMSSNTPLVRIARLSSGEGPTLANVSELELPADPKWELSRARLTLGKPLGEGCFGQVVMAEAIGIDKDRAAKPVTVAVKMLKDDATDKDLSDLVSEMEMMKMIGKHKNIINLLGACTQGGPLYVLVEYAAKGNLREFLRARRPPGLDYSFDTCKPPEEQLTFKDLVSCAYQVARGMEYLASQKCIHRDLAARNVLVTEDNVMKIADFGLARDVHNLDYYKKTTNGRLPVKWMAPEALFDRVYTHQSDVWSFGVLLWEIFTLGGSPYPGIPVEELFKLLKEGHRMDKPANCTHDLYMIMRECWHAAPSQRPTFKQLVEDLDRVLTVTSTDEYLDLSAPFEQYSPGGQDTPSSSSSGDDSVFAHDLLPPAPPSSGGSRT
Experiment [15] addresses T2, AURKC (Homo sapiens, UniProt Q9UQB9).
T2 sequence (Q9UQB9 1-309): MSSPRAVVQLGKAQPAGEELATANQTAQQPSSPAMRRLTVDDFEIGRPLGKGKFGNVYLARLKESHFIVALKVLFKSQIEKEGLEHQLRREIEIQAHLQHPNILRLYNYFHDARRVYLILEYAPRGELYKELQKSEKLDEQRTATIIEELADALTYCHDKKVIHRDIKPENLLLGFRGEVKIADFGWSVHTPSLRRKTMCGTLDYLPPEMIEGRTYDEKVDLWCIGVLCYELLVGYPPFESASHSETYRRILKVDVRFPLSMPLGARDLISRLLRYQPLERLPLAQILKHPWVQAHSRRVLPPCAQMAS
In words: Kinase selectivity screen AURKC. The following applies: read-out: % inhibition of AURKC.

The target in experiment [16] is PRKAA2 (Homo sapiens, UniProt P54646). In words: Kinase selectivity screen PRKAA2. The conditions noted are these: read-out: % inhibition of PRKAA2.
Chain of PRKAA2 (P54646 whole entry, species assumed): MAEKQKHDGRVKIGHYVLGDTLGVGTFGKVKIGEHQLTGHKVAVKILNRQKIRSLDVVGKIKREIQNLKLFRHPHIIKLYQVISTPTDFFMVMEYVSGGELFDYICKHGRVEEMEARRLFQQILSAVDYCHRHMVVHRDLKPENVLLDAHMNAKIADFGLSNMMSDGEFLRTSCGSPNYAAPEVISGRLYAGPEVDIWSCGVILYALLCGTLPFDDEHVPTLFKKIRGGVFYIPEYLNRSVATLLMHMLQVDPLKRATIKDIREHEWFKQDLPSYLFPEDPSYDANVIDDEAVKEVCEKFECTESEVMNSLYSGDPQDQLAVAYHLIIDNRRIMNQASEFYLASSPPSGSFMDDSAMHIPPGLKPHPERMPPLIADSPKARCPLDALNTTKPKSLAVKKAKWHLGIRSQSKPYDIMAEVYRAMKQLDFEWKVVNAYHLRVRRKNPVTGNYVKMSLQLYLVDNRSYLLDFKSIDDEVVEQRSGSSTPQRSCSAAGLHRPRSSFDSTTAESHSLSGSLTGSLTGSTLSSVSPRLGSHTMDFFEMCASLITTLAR
Chain of PRKAA2 (Q9Y478 whole entry partner, species assumed): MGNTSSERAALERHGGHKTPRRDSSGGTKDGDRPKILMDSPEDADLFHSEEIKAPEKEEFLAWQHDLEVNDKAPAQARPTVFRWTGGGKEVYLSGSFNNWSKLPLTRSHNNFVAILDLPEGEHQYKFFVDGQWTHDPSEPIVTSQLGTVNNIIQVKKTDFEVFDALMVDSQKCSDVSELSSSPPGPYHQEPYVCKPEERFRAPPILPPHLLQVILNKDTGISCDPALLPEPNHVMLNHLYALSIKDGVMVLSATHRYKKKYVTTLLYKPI
Chain of PRKAA2 (P54619 whole entry partner, species assumed): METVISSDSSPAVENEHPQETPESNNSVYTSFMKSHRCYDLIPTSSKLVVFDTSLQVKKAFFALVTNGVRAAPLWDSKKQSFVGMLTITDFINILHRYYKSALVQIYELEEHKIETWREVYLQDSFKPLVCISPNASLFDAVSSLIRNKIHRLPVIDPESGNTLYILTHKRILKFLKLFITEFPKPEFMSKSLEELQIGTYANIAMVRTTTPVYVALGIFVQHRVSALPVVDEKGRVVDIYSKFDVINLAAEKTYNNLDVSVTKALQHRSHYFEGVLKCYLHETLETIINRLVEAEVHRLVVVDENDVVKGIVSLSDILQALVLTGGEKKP
Experiment [17] addresses MAP3K9 (Homo sapiens, UniProt P80192). In words: Kinase selectivity screen MAP3K9. The following applies: read-out: % inhibition of MAP3K9.
Experiment [18] has as its target T3, MAP3K7 (Homo sapiens, UniProt O43318).
T3 sequence (O43318 1-303 limits assumed): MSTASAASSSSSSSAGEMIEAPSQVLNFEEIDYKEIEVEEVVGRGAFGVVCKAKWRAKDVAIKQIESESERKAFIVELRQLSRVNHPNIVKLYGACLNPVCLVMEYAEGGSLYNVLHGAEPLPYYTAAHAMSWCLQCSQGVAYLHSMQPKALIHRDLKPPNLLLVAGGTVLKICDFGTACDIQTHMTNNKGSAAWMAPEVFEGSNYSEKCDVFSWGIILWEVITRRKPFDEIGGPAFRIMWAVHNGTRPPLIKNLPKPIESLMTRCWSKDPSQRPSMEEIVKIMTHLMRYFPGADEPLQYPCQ
The experiment is described as follows: Kinase selectivity screen MAP3K7. The following applies: read-out: % inhibition of MAP3K7.

Experiment [19] has as its target CDK1/CCNB1 (Homo sapiens, UniProt P06493). The experiment is described as follows: Kinase selectivity screen CDK1/CCNB1. The following applies: read-out: % inhibition of CDK1/CCNB1.
In experiment [20] the target is CDK9/CCNT1 (Homo sapiens, UniProt P50750). The experiment is described as follows: Kinase selectivity screen CDK9/CCNT1. The conditions noted are these: read-out: % inhibition of CDK9/CCNT1.
Chain of CDK9/CCNT1 (P50750 whole entry, species assumed): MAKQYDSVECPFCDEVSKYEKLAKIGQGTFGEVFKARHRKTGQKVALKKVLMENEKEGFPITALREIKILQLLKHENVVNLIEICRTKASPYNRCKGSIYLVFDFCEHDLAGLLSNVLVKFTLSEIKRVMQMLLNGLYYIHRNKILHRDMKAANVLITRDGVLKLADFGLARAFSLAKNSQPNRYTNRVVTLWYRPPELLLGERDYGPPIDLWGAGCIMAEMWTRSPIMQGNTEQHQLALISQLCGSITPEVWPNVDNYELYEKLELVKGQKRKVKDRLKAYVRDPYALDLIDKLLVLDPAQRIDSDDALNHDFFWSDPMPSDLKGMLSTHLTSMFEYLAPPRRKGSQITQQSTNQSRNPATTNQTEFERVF
Chain of CDK9/CCNT1 (O60563 whole entry partner, species assumed): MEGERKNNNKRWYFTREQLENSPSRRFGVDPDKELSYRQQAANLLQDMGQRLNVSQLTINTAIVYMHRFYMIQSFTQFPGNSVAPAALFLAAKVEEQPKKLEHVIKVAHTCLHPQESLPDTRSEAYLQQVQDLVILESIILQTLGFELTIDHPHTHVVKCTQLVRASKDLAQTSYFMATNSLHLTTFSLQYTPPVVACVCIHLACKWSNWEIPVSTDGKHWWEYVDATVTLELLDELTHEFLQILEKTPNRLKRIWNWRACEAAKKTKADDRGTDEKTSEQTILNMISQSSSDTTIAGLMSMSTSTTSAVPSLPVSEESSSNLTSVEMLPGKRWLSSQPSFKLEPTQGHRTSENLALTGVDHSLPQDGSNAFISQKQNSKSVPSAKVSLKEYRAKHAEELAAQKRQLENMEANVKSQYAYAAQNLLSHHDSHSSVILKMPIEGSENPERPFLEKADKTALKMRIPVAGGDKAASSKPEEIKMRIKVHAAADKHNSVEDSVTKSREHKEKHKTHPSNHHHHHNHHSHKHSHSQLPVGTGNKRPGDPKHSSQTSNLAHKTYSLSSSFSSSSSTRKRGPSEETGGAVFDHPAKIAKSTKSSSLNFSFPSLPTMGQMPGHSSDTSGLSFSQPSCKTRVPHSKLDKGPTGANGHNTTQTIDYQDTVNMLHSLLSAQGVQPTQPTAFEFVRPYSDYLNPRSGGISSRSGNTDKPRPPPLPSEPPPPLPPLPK

Chain of FES (P07332 whole entry, species assumed): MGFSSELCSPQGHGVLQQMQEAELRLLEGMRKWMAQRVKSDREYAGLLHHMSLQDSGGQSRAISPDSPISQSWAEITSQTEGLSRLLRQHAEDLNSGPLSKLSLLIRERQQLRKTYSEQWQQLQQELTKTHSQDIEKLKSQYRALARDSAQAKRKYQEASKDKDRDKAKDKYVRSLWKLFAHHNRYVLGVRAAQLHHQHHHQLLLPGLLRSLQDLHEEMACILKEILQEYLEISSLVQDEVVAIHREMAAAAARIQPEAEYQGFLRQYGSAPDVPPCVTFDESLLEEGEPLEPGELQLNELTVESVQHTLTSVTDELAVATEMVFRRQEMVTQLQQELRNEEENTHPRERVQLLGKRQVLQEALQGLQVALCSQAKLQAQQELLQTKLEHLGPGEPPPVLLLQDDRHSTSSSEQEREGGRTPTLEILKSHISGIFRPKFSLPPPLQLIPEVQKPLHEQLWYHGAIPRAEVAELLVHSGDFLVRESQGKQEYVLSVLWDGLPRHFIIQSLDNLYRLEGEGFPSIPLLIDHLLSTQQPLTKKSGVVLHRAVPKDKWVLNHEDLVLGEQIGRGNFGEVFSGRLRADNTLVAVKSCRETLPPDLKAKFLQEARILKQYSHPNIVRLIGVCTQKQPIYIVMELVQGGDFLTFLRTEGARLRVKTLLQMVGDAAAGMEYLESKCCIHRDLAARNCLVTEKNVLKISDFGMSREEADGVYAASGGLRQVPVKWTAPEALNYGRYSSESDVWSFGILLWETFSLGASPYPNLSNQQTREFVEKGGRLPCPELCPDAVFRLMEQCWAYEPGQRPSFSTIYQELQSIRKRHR

`O=C(NCC1CCNCC1)c1nc2c(N3CCc4cc(F)ccc43)ncnc2s1` [Example 58, 7-(5-fluoroindolin-1-yl)-N-(4-piperidylmethyl)thiazolo[5,4-d]pyrimidine-2-carboxamide]: the inhibition at 1 µM in experiment [1] came to 16%; in experiment [2], 9%; in experiment [3] it was 0%; in [4], 7%; in experiment [5], 0%; in experiment [6], 1%. The inhibition at 1 µM is 20% in experiment [7]; 13% in experiment [8]; 0% in [9]; 6% in [10]; 0% in [11]; 0% in [12]. Also, the inhibition at 1 µM in experiment [13] worked out at 21%; in experiment [14], 0%; in experiment [15], 5%; in experiment [16], 1%; in experiment [17], 24%; in experiment [18] it was 14%. Besides, the inhibition at 1 µM in [19] turned out to be 0%; in experiment [20], 11%.
On to `CN(C)CCCNC(=O)c1nc2c(N3CCc4cc(F)ccc43)ncnc2s1` [Example 64, N-[3-(dimethylamino)propyl]-7-(5-fluoroindolin-1-yl)thiazolo[5,4-d]pyrimidine-2-carboxamide], for which the inhibition at 1 µM is 1% in experiment [1]; 0% in [2]; 0% in [3]; 0% in [4]; 0% in experiment [5]; 0% in experiment [6]. Besides, the inhibition at 1 µM in experiment [7] turned out to be 0%; in experiment [8], 42%; in experiment [9] it was 0%; in experiment [10] it was 4%; in [11], 3%; in [12] it was 0%. Further, the inhibition at 1 µM came out at 44% in experiment [13]; 3% in [14]; 15% in experiment [15]; 45% in experiment [16]; 1% in experiment [17]; 0% in [18]. For the same compound, the inhibition at 1 µM in experiment [19] and in experiment [20] was 4% each time.
With `CC(C)Oc1cc(F)ccc1Nc1ncnc2sc(C(=O)NCC3CCNCC3)nc12` [Example 10, 7-(4-fluoro-2-isopropoxy-anilino)-N-(4-piperidylmethyl)thiazolo[5,4-d]pyrimidine-2-carboxamide], the inhibition at 1 µM is 13% in experiment [1]; 6% in [2]; 5% in experiment [3]; 0% in experiment [4]; 12% in experiment [5]; 0% in experiment [6]. Moreover, the inhibition at 1 µM in experiment [7] turned out to be 8%; in experiment [8], 7%; in experiment [9], 0%; in experiment [10], 4%; in experiment [11], 4%; in experiment [12] it was 11%. Moreover, the inhibition at 1 µM amounted to 7% in experiment [13]; 0% in [14]; 14% in [15]; 1% in experiment [16]; 11% in experiment [17]; 20% in experiment [18]. Also, the inhibition at 1 µM in experiment [19] worked out at 8%; in experiment [20] it was 2%.
